Laboratory results published in ChEMBL document CHEMBL1201862, “PubChem BioAssay data set” (2004).
“And” between values parts separate entries of the source, which are not always exact repeats. Equal values may be shown once. One block for each compound: values may come before it. The source made the active and inactive calls.

Key:
[1] = NIH3T3 cell viability loss – ATP luminescence, mouse fibroblasts, counter-screen, dose response (AID 2010); format: functional, cell-based;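 also: cells exposed to compound for about 90 hours before reading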
[2] = Trypanosoma cruzi growth suppression in host cells – NIH3T3 host cells, beta-gal luminescence, confirmation (AID 2044); format: functional, cell-based;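 also: intracellular parasites grown in NIH/3T3 mouse fibroblasts as host cells; luminescent beta-galactosidase reporter signal from transgenic T. cruzi replicating inside host cells; inhibitors lower the luminescence signal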
[3] = target: Cytochrome P450 2C9 (Homo sapiens, UniProt P11712)
[4] = target: Cytochrome P450 3A4 (Homo sapiens, UniProt P08684);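 also: CYP3A4 tested as one member of a cytochrome P450 panel screen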
[5] = target: Cytochrome P450 2C19 (Homo sapiens, UniProt P33261); assay: Cytochrome panel assay with activity outcomes. Panel member name: p450-cyp2c19 Compounds with AC50 equal or less than 10 uM are considered active; format: functional
[6] = target: Cytochrome P450 2D6 (Homo sapiens, UniProt P10635);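 also: CYP2D6 member of a cytochrome P450 panel assay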
[7] = system: INS1; assay: INS-1E survival protection against cytokine death – cell-based, luminescence, retest, dose response (AID 449756); format: functional; details: Rattus norvegicus;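 also: cell death triggered by IL-1 beta plus TNF-alpha plus IFN-gamma mixture; protective hits raise ATP signal compared with cytokine alone wells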

Cytochrome P450 2C19, sequence (P33261 whole entry): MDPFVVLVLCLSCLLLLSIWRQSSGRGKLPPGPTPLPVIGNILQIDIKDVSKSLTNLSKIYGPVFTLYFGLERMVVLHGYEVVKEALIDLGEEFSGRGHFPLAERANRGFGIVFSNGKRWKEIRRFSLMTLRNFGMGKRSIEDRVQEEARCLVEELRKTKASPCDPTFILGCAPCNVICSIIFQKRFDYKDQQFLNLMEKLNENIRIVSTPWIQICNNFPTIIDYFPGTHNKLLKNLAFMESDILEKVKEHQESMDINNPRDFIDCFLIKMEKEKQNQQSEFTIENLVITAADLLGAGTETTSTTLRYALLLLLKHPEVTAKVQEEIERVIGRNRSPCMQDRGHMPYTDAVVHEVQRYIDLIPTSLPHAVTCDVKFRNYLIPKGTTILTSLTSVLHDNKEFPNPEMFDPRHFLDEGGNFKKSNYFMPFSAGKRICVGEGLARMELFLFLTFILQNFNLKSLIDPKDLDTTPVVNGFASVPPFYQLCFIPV
Cytochrome P450 2D6, sequence (P10635 whole entry): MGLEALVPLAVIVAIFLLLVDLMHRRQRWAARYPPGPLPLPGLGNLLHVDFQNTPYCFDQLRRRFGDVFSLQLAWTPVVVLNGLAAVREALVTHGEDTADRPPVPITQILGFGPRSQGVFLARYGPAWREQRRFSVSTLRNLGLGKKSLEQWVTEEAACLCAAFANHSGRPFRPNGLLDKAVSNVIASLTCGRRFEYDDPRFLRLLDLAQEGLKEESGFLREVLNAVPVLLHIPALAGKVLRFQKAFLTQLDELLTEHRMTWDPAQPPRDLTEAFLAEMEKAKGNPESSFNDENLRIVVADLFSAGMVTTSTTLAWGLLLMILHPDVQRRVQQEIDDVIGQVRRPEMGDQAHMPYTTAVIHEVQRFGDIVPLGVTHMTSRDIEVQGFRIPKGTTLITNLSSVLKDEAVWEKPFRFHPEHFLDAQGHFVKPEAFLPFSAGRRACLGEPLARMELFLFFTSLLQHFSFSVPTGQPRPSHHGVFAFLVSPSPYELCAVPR
Cytochrome P450 2C9, sequence (P11712 whole entry): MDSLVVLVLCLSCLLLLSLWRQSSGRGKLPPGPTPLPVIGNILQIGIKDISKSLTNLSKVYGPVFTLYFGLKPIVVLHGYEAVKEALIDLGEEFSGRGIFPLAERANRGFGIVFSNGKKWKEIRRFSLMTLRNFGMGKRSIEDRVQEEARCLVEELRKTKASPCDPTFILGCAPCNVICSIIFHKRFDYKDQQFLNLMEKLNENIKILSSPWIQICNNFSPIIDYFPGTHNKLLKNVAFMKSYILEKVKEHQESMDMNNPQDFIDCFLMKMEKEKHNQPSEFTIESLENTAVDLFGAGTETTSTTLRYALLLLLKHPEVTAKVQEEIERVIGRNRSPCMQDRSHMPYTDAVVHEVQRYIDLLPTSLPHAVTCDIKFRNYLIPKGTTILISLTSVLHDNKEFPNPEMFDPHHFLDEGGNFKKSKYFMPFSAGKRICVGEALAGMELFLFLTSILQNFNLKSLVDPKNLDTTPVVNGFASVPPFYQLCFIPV
Cytochrome P450 3A4, sequence (P08684 whole entry): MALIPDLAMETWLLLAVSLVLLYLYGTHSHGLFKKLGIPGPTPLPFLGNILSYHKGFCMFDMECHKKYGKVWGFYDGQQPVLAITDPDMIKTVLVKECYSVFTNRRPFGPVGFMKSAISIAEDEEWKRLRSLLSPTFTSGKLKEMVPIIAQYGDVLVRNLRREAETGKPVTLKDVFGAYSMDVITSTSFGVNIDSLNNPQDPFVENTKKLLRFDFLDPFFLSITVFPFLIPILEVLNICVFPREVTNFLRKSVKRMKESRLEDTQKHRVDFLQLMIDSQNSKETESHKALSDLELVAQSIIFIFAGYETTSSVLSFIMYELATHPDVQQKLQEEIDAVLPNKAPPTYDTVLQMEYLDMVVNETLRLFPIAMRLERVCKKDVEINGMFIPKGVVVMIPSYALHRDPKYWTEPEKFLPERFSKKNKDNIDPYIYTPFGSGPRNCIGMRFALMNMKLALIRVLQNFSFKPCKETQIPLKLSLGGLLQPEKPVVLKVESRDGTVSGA

SMILES: CCN(C(=O)c1cc2c(O)nc3ccc(C)cc3c2s1)c1cccc(C)c1
EC50 [1]: > 60 µM (inconclusive) | EC50 [2]: 0.708 µM (active)

SMILES: COCC1CCCCN1Cc1c[nH]nc1-c1ccc2cc(OC)ccc2c1 (stereo not given)
EC50 [1]: > 60 µM (not active) | EC50 [2]: 0.679 µM (active)

SMILES: Clc1ccc(-c2nnc(-c3cccc4ccccc34)o2)cc1Cl
AC50 [5]: inconclusive

SMILES: CC(C)CN1CCCC2(CCN(C(=O)c3cccc(F)c3)CC2)C1
AC50 [6]: 12.6 µM (inconclusive) | AC50 [4]: 25.1 µM (inconclusive)

SMILES: C[n+]1ccc(/C=C/c2ccc(Br)cc2)cc1
AC50 ([5]; read-out: AC50): 3.98 µM (inconclusive)

SMILES: C[C@@H]1O[C@@H](O)[C@@H](O)[C@H](O)[C@H]1O
AC50 [5]: inconclusive

SMILES: CCOc1ccc(N(CC(=O)NCCC2=CCCCC2)S(=O)(=O)c2ccccc2)cc1
EC50 [1]: 10.6 µM (active) | EC50 [2]: 2.58 µM (active)

SMILES: Cc1cc(C)c(S(=O)(=O)c2ccc(F)cc2C)c(Cl)n1
EC50 [1]: > 60 µM (not active) | EC50 [2]: 0.867 µM (active)

SMILES: O=C(CN1C(=O)COc2ccccc21)N(Cc1cccnc1)Cc1cccc(F)c1
EC50 [1]: > 60 µM (not active) | EC50 [2]: 0.557 µM (active)

SMILES: Cc1cc(C(C)(C)C)cc(CNC2CCCCC2)c1O
AC50 [3]: 7.94 µM (inconclusive)

SMILES: CC(=O)OC[C@@H]1O[C@H](C/C=N\O[C@@H](C)c2cn([C@H](CO)Cc3ccccc3)nn2)C=C[C@@H]1OC(C)=O
AC50 [4]: 5.01 µM (inconclusive) and 3.98 µM (inconclusive)

SMILES: CCOC(=O)C1=C(CCc2ccccc2)NC(=O)NC1c1ccc2ccccc2c1 (stereo not given)
AC50 [7]: 31.5 µM (active)

SMILES: CS(=O)(=O)N1CCC2(CCCN(Cc3ccc(C#N)cc3)C2)CC1
AC50 [6]: 20 µM (inconclusive)

SMILES: O=C1CN(c2nc(-c3cccnc3)nc3scc(-c4ccccc4)c23)CCN1
EC50 [1]: 59.3 µM (active) | EC50 [2]: 4.67 µM (active)

SMILES: O=C(c1ccncc1)N1CCC[C@@]2(CCN(Cc3nccs3)C2)C1
AC50 [6]: 20 µM (inconclusive)

SMILES: O=C(c1cnccn1)N1CCC2(CCCN(c3ccccn3)C2)CC1
AC50 [6]: 20 µM (inconclusive) | AC50 [4]: 7.94 µM (inconclusive)

SMILES: OC(COC(c1ccc(F)cc1)c1ccc(F)cc1)CN1CCc2ccccc2C1 (stereo not given)
AC50 [7]: 18.2 µM (active)

SMILES: c1cc(CCN2CCCCC2)ccn1
AC50 [4]: 6.31 µM (inconclusive)

SMILES: CCOC(=O)c1cnc(-n2nc(C)cc2C)nc1Nc1ccc(O)cc1
AC50 [7]: 1.67 µM (active)

SMILES: O=[N+]([O-])c1nn(-c2ccccc2)[n+]([O-])c1NCCc1ccccc1
EC50 [1]: > 60 µM (inconclusive) | EC50 [2]: 0.478 µM (active)

SMILES: Cc1ccc(C)c(N2CCN(CC(=O)Nc3ccc([N+](=O)[O-])cc3C(=O)Nc3ccccc3F)CC2)c1
EC50 [1]: > 60 µM (not active) | EC50 [2]: 1.19 µM (active)

SMILES: COC1=CC(=O)O[C@@H](/C=C\c2ccccc2)C1
AC50 ([5]; read-out: AC50): 5.01 µM (inconclusive)

SMILES: CSc1nsc(SC)c1C(=O)Nc1ccc(C)cc1
AC50 [3]: 15.8 µM (inconclusive)

Results, then the compound that gave them:

AC50 [3]: 15.8 µM (inconclusive)
SMILES: CCC(=O)Nc1ccc(C(=O)CSc2nnc(-c3ccc(O)cc3)n2CC2CCCO2)cc1OC (stereo not given)

AC50 [4]: 12.6 µM (inconclusive)
SMILES: c1ccc(CNc2cc(-c3ccoc3)ncn2)cc1

AC50 [4]: 20 µM (inconclusive)
SMILES: O=C(c1ccco1)N1CCC[C@@]2(CCN(Cc3ccccc3)C2)C1

AC50 ([5]; read-out: AC50): 39.8 µM (inconclusive) | AC50 [3]: 0.447 µM (inconclusive)
SMILES: O=C(CSc1ccccc1)Nc1ccc(N2CCN(c3ccccc3)CC2)c(F)c1

AC50 [6]: 39.8 µM (inconclusive)
SMILES: Cc1noc(C)c1-c1nccc(NCc2ccccc2)n1

AC50 [4]: 39.8 µM (inconclusive)
SMILES: CC(=O)N1N=C(c2cccc([N+](=O)[O-])c2)OC1c1ccccc1Cl (stereo not given)

AC50 [4]: 31.6 µM (inconclusive)
SMILES: O=c1c(-c2ccc(Cl)cc2)nc2cnc(N3CCNCC3)nc2n1CCc1ccccc1

AC50 [6]: 39.8 µM (inconclusive)
SMILES: COC(=O)[C@@]1(Cc2ccccc2)[C@H]2c3cc(C(=O)N(C)C)n(Cc4cc(C)n(C)n4)c3C[C@H]2CN1C(=O)c1ccccc1

AC50 [6]: 0.0112 µM (inconclusive)
SMILES: CCOC(=O)c1c(-c2ccccc2)csc1NC(=O)c1cccc(N2C(=O)CCC2=O)c1

AC50 [6]: 17.8 µM (inconclusive)
SMILES: O=C(CSc1nnc(-c2ccncc2)n1Cc1ccccc1)Nc1nccs1

AC50 [6]: 39.8 µM (inconclusive)
SMILES: Cc1cnc(CNc2ncncc2-c2ccccc2CN(C)C)cn1

AC50 [5]: inconclusive | AC50 [6]: 10 µM (inconclusive)
SMILES: C[N+]1(C)CCC[C@@H](OC(=O)C(O)(c2ccccc2)c2ccccc2)C1

AC50 [6]: 14.1 µM (inconclusive)
SMILES: C#CCn1c(S(=O)(=O)Cc2ccc(OC)cc2)nc(-c2ccccc2)c1-c1ccccc1

AC50 [6]: 0.00562 µM (inconclusive) | AC50 [4]: 14.1 µM (inconclusive)
SMILES: CCOC(=O)c1c(-c2ccccc2)nc2c(C)cccn12
